Source: patent publication US11866450B2, “Modulators of Cystic Fibrosis Transmembrane Conductance regulator, pharmaceutical compositions, methods of treatment, and process for making the modulators” (priority 2018, dated 2024)
Like-named read-outs stand apart in the source and are kept apart here.

How the values were obtained:
[1] = snar bond, DMSO
[2] = molecular target: CFTR-mediated chloride transport (Homo sapiens, UniProt P13569); assay type: cell-based; conditions: enteroid cells incubated with test compound 18-24 hours, acute 10 μM forskolin and 300 nM Compound III; for Max. Activity: % of chloride transport with 3 μM Compound A, 3 μM Compound II and 300 nM acute Compound III triple combination control
In short: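 Membrane-potential fluorescence AUC over 15 min quantified CFTR chloride transport after acute forskolin (10 μM), IBMX (100 μM) and Compound III (300 nM) in chloride-free buffer. Human enteroid cells were pretreated with compound for 18–24 h; % Activity is relative to 3 μM Compound A + 3 μM Compound II + 300 nM Compound III.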

CFTR-mediated chloride transport, sequence (P13569 whole entry, looked up): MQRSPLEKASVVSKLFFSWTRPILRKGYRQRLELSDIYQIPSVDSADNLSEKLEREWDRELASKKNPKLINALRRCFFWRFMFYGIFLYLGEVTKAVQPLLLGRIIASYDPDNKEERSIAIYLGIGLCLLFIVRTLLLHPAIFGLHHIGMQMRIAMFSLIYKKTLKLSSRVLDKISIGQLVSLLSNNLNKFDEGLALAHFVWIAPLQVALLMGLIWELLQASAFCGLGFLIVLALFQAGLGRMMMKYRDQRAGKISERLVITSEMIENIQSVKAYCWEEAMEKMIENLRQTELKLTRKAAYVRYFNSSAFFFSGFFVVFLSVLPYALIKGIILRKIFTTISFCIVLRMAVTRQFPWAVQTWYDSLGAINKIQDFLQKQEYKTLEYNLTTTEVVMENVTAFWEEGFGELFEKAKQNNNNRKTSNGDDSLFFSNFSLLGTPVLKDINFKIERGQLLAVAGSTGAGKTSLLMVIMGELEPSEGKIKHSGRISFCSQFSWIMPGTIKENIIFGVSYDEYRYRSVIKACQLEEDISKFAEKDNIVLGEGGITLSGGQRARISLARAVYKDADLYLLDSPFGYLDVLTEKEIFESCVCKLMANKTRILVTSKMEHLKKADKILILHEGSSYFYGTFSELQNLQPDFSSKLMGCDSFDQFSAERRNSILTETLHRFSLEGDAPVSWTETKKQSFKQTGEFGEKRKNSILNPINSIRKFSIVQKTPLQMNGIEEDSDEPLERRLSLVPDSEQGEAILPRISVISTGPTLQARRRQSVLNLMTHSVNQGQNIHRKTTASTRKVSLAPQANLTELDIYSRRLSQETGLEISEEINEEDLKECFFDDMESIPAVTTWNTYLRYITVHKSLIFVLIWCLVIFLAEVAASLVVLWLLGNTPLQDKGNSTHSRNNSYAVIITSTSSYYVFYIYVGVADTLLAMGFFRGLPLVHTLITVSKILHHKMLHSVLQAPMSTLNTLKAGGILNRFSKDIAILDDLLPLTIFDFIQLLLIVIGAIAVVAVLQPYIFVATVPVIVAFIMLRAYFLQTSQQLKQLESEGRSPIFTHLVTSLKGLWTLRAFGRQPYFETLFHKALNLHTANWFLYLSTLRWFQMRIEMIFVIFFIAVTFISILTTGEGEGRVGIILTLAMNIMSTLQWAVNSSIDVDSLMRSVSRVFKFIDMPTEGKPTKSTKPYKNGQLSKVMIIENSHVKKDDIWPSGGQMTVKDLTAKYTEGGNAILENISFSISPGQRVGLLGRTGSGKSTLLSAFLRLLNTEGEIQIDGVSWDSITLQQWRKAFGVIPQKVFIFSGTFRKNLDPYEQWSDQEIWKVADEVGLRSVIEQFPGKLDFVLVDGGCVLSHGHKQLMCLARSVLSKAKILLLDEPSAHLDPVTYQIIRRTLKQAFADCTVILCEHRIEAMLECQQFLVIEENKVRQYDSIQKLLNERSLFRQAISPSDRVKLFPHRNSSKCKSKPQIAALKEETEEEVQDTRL

Row | Structure (SMILES) | EC50 [2] | Max. Activity [2] | further results
1 | CC1(C)CC2CCCn3ccc(n3)S(=O)(=O)NC(=O)c3ccc(-n4ccc(OCCCC5(C(F)(F)F)CC5)n4)nc3N1C2 (racemic) [Compound 155, 20,20-Dimethyl-4-(3-{3-[1-(trifluoromethyl)cyclopropyl]propoxy}-1H-pyrazol-1-yl)-10λ^6-thia-1,3,9,14,22-pentaazatetracyclo[16.2.1.111,14.02,7]docosa-2(7),3,5,11(22),12-pentaene-8,10,10-trione] | < 1000 nM | +++ (+++ is >60%) | ring closure, yield after HPLC ([1]; from CC1(C)CC(CCCn2ccc(S(=O)(=O)NC(=O)c3ccc(-n4ccc(OCCCC5(C(F)(F)F)CC5)n4)nc3Cl)n2)CN1, 14-membered ring, K2CO3/CsF/3A MS, 49.7 mM, 140.0 °C, 16.0 h, 2 steps): 51%
2 | CC1(C)CC2CN1c1nc(-n3ccc(OCCC(C4CC4)C4CC4)n3)ccc1C(=O)NS(=O)(=O)c1cccc(n1)NCCO2 (racemic) [Compound 156, 8-[3-(3,3-Dicyclopropylpropoxy)-1H-pyrazol-1-yl]-12,12-dimethyl-15-oxa-2λ^6-thia-3,9,11,18,23-pentaazatetracyclo[17.3.1.111,14.05,10]tetracosa-1(23),5,7,9,19,21-hexaene-2,2,4-trione] | < 1000 nM | +++ (+++ is >60%) | ring closure, yield after HPLC ([1]; from CC1(C)CC(OCCNc2cccc(S(=O)(=O)NC(=O)c3ccc(-n4ccc(OCCC(C5CC5)C5CC5)n4)nc3Cl)n2)CN1, 15-membered ring, K2CO3/CsF/3A MS, 121.6 mM, 150.0 °C): 30%
3 | CC1(C)CC2CN1c1nc(-n3ccc(OCCC4(C(F)(F)F)CC4)n3)ccc1C(=O)NS(=O)(=O)c1ccn(n1)CCO2 (racemic) [Compound 164, 20,20-Dimethyl-4-(3-{2-[1-(trifluoromethyl)cyclopropyl]ethoxy}-1H-pyrazol-1-yl)-17-oxa-10λ^6-thia-1,3,9,14,22-pentaazatetracyclo[16.2.1.111,14.02,7]docosa-2(7),3,5,11(22),12-pentaene-8,10,10-trione] | 1000 to 3000 nM | ++ (++ is 30-60%) | ring closure, yield after HPLC ([1]; from CC(C)(C)OC(=O)N1CC(OCCn2ccc(S(=O)(=O)NC(=O)c3ccc(-n4ccc(OCCC5(C(F)(F)F)CC5)n4)nc3Cl)n2)CC1(C)C, 14-membered ring, K2CO3/CsF/3A MS, 62.6 mM, 140.0 °C, 2 steps): 30%
4 | CC1(C)CC2CN1c1nc(-n3ccc(OCCC4C5(CC5)C45CC5)n3)ccc1C(=O)NS(=O)(=O)c1cccc(n1)NCCO2 (racemic) [Compound 188, 8-[3-(2-{Dispiro[2.0.2.1]heptan-7-yl}ethoxy)-1H-pyrazol-1-yl]-12,12-dimethyl-15-oxa-2λ^6-thia-3,9,11,18,23-pentaazatetracyclo[17.3.1.111,14.05,10]tetracosa-1(23),5(10),6,8,19,21-hexaene-2,2,4-trione] | < 1000 nM | +++ (+++ is >60%) | ring closure, yield after HPLC ([1]; from CC1(C)CC(OCCNc2cccc(S(=O)(=O)NC(=O)c3ccc(-n4ccc(OCCC5C6(CC6)C56CC6)n4)nc3Cl)n2)CN1, 15-membered ring, K2CO3/CsF/3A MS, 108.4 mM, 140.0 °C, 20.0 h, 2 steps): 97%
5 | CC(C)(C)COc1ccn(-c2ccc3c(n2)N2CC(CCNc4cccc(n4)S(=O)(=O)NC3=O)CC2(C)C)n1 (stereo not drawn) [Compound 1, 11-[3-(2,2-dimethylpropoxy)-1H-pyrazol-1-yl]-7,7-dimethyl-17λ^6-thia-2,8,10,16,22-pentaazatetracyclo[16.3.1.15,8.09,14]tricosa-1(21),9(14),10,12,18(22),19-hexaene-15,17,17-trione] | < 1000 nM | +++ (+++ is >60%) | ring closure, yield after HPLC ([1]; from CC(C)(C)COc1ccn(-c2ccc(C(=O)NS(=O)(=O)c3cccc(NCCC4CNC(C)(C)C4)n3)c(Cl)n2)n1, 14-membered ring, K2CO3, 155.0 °C, 62.0 h, 2 steps): 10%
6 | CC1(C)CC2CCNc3cccc(n3)S(=O)(=O)NC(=O)c3ccc(-n4ccc(OCC5(C(F)(F)F)CC5)n4)nc3N1C2 (stereo not drawn) [Compound 4, 7,7-dimethyl-11-(3-{[1-(trifluoromethyl)cyclopropyl]methoxy}-1H-pyrazol-1-yl)-17λ^6-thia-2,8,10,16,22-pentaazatetracyclo[16.3.1.1(5,8).0(9,14)]tricosa-1(21),9(14),10,12,18(22),19-hexaene-15,17,17-trione] | < 1000 nM | +++ (+++ is >60%) | ring closure, yield after HPLC ([1]; from CC1(C)CC(CCNc2cccc(S(=O)(=O)NC(=O)c3ccc(-n4ccc(OCC5(C(F)(F)F)CC5)n4)nc3Cl)n2)CN1, 14-membered ring, K2CO3, 210.5 mM, 125.0 °C, 112.0 h, 2 steps): 9%
7 | Cc1c2cnn1CCCC1CN(c3nc(-n4ccc(OCCC5(C(F)(F)F)CC5)n4)ccc3C(=O)NS2(=O)=O)C(C)(C)C1 (stereo not drawn) [Compound 18, 20,20,22-trimethyl-4-(3-{2-[1-(trifluoromethyl)cyclopropyl]ethoxy}-1H-pyrazol-1-yl)-10λ^6-thia-1,3,9,13,14-pentaazatetracyclo[16.2.1.111,14.02,7]docosa-2,4,6,11(22),12-pentaene-8,10,10-trione] | < 1000 nM | ++ (++ is 30-60%) | ring closure, yield after HPLC ([1]; from Cc1c(S(=O)(=O)NC(=O)c2ccc(-n3ccc(OCCC4(C(F)(F)F)CC4)n3)nc2Cl)cnn1CCCC1CNC(C)(C)C1, 14-membered ring, K2CO3/CsF/3A MS, 31.9 mM, 150.0 °C): 7%
8 | Cc1nn2cc1S(=O)(=O)NC(=O)c1ccc(-n3ccc(OCCC4(C(F)(F)F)CC4)n3)nc1N1CC(CCC2)CC1(C)C (stereo not drawn) [Compound 19, 12,20,20-trimethyl-4-(3-{2-[1-(trifluoromethyl)cyclopropyl]ethoxy}-1H-pyrazol-1-yl)-10λ^6-thia-1,3,9,13,14-pentaazatetracyclo[16.2.1.111,14.02,7]docosa-2,4,6,11(22),12-pentaene-8,10,10-trione] | 1000 to 3000 nM | ++ (++ is 30-60%) | ring closure, yield after HPLC ([1]; from Cc1nn(CCCC2CNC(C)(C)C2)cc1S(=O)(=O)NC(=O)c1ccc(-n2ccc(OCCC3(C(F)(F)F)CC3)n2)nc1Cl, 14-membered ring, K2CO3/CsF/3A MS, 31.9 mM, 150.0 °C): 9%
9 | CC1(C)CC2CCCNc3ccnc(c3)S(=O)(=O)NC(=O)c3ccc(-n4ccc(OCCC5(C(F)(F)F)CC5)n4)nc3N1C2 (stereo not drawn) [Compound 23, 12,12-dimethyl-8-(3-{2-[1-(trifluoromethyl)cyclopropyl]ethoxy}-1H-pyrazol-1-yl)-2λ^6-thia-3,9,11,18,22-pentaazatetracyclo[17.3.1.111,14.05,10]tetracosa-1(23),5(10),6,8,19,21-hexaene-2,2,4-trione] | > 3000 nM | + (+ is <30%) | ring closure, yield after HPLC ([1]; from CC(C)(C)OC(=O)N1CC(CCCNc2ccnc(S(=O)(=O)NC(=O)c3ccc(-n4ccc(OCCC5(C(F)(F)F)CC5)n4)nc3Cl)c2)CC1(C)C, 15-membered ring, K2CO3/CsF, 13.0 mM, 150.0 °C, 2 steps): 9%
10 | CC1(C)CC2CN1c1nc(-n3ccc(OCCC4(C(F)(F)F)CC4)n3)ccc1C(=O)NS(=O)(=O)c1cccc(n1)N2 (stereo not drawn) [Compound 31, 5,5-dimethyl-9-(3-{2-[1-(trifluoromethyl)cyclopropyl]ethoxy}-1H-pyrazol-1-yl)-15λ^6-thia-2,6,8,14,20-pentaazatetracyclo[14.3.1.13,6.07,12]henicosa-1(20),7,9,11,16,18-hexaene-13,15,15-trione] | > 3000 nM | + (+ is <30%) | ring closure, yield after HPLC ([1]; from 2-chloro-N-[[6-[(5,5-dimethylpyrrolidin-3-yl)amino]-2-pyridyl]sulfonyl]-6-[3-[2-[1-(trifluoromethyl)cyclopropyl]ethoxy]pyrazol-1-yl]pyridine-3-carboxamide (dihydrochloride salt), 12-membered ring, K2CO3/CsF/4A MS, 10.5 mM, 150.0 °C): 37%
11 | CC1(C)CC2CCCn3ccc(n3)S(=O)(=O)NC(=O)c3ccc(-n4ccc(OCCC5(C(F)(F)F)CC5)n4)nc3N1C2 (stereo not drawn) [Compound 32, 20,20-dimethyl-4-(3-{2-[1-(trifluoromethyl)cyclopropyl]ethoxy}-1H-pyrazol-1-yl)-10λ^6-thia-1,3,9,14,22-pentaazatetracyclo[16.2.1.111,14.02,7]docosa-2(7),3,5,11(22),12-pentaene-8,10,10-trione] | < 1000 nM | +++ (+++ is >60%) | ring closure, yield after HPLC ([1]; from CC(C)(C)OC(=O)N1CC(CCCn2ccc(S(=O)(=O)NC(=O)c3ccc(-n4ccc(OCCC5(C(F)(F)F)CC5)n4)nc3Cl)n2)CC1(C)C, 14-membered ring, K2CO3/CsF/3A MS, 55.3 mM, 130.0 °C, 2 steps): 40%
12 | CC1(C)CCC2CCCCNc3cccc(n3)S(=O)(=O)NC(=O)c3ccc(-n4ccc(OCCC5(C(F)(F)F)CC5)n4)nc3N21 (stereo not drawn) [Compound 37, 12,12-dimethyl-8-(3-{2-[1-(trifluoromethyl)cyclopropyl]ethoxy}-1H-pyrazol-1-yl)-2λ^6-thia-3,9,11,20,25-pentaazatetracyclo[19.3.1.05,10.011,15]pentacosa-1(24),5,7,9,21(25),22-hexaene-2,2,4-trione] | < 1000 nM | + (+ is <30%) | ring closure, yield after HPLC ([1]; from CC1(C)CCC(CCCCNc2cccc(S(=O)(=O)NC(=O)c3ccc(-n4ccc(OCCC5(C(F)(F)F)CC5)n4)nc3Cl)n2)N1, 15-membered ring, K2CO3/CsF, 85.3 mM, 150.0 °C): 25%
13 | CC1(C)CC2CCCNc3cccc(n3)S(=O)(=O)NC(=O)c3ccc(-n4ccc(O)n4)nc3N1C2 (stereo not drawn) [Compound 38, 8-(3-hydroxy-1H-pyrazol-1-yl)-12,12-dimethyl-2λ^6-thia-3,9,11,18,23-pentaazatetracyclo[17.3.1.111,14.05,10]tetracosa-1(22),5,7,9,19(23),20-hexaene-2,2,4-trione] | > 3000 nM | ++ (++ is 30-60%) | ring closure, yield after HPLC ([1]; from CC1(C)CC(CCCNc2cccc(S(=O)(=O)NC(=O)c3ccc(-n4ccc(O)n4)nc3Cl)n2)CN1, 15-membered ring, CsF/K2CO3/3A MS, 39.3 mM, 140.0 °C): 17%
